In EP4725957A1, “GROUP OF CYCLIC ALKALINE LIPOPEPTIDE COMPOUNDS, AND PREPARATION METHOD THEREFOR AND USE THEREOF” (Institute of Medicinal Biotechnology, Chinese Academy of …, priority 2023, dated 2024):
Values after ≈ are worked out from the molar mass of the structure shown. Bridge positions count the residues as written; N and C are the ends. Square brackets hold non-standard residues; d marks the D form. Peptide text beside a SMILES is read from it. * marks the point of attachment. Heptanoyl(6-Me) = CC(C)CCCCC(=O)*; dOrn = NCCC[C@@H](N)C(=O)O; Nonanoyl = CCCCCCCCC(=O)*; X1 = CC[C@H](C)CCCCC(=O)*; Octanoyl = CCCCCCCC(=O)*; Dab = NCC[C@H](N)C(=O)O

Key:
Assay type in all cases: cell-based
[1] = system: Acinetobacter baumannii ABA19-1; conditions: ABA19-1
Experimental: (§1) The minimal inhibitory concentration (MIC) was determined by the broth microdilution method according to the recommended procedures of the Clinical and Laboratory Standards Institute (CLSI).
(§2) An appropriate amount of the cyclic lipopeptide compounds prepared in Examples 1-120 and the reference standards were weighed and dissolved in sterile pure water. An appropriate volume of the mother solution was subjected to ten-fold dilution with sterile Mueller-Hinton (MH) broth to a concentration of 0.256 mg/mL. Half of the drug solution was aliquoted into 96-well reagent reservoirs, while the other half was subjected to two-fold serial dilution with sterile MH broth before being transferred into deep-well reagent reservoirs. The above steps were repeated, so that the drug concentrations in the reagent reservoirs were adjusted to 128, 64, 32, 16, 8, 4, 2, 1, 0.5, 0.25, 0.125 and 0.06 mg/L in sequence, and all solutions were prepared and used immediately. Several colonies were picked from agar plates cultured for 18-24 h and directly suspended in sterile normal saline, and the concentration of the bacterial suspension was adjusted to 0.5 McFarland units. The calibrated bacterial suspension was diluted with MH broth to a concentration of (4-8) × 10^5 colony-forming units per milliliter (CFU/mL) and prepared and used immediately. A volume of 100 µL of the aforementioned compounds of the present disclosure (e.g., the compounds prepared in the examples) and reference solutions at different concentrations was separately pipetted into wells 1 to 12 of sterile 96-well polystyrene plates, and an additional 100 µL of the aforementioned inoculum was added to each well. The final concentrations of the samples in the wells were adjusted to 64, 32, 16, 8, 4, 2, 1, 0.5, 0.25, 0.125, 0.06 and 0.03 mg/L, respectively, and the final concentration of the inoculum in each well was (2-4) × 10^5 CFU/mL. Additional growth control wells were set up, each containing 100 µL of the inoculum and 100 µL of sterile MH broth. The test substances and inocula in all wells were mixed thoroughly and then sealed. The inoculated 96-well plates were incubated in an incubator at 35-37°C for 16-20 h.
(§3) The strains used for the antibacterial activity assay were obtained from the American Type Culture Collection (ATCC) and clinical isolates.
(§4) The strains employed for the antibacterial activity assay included Escherichia coli ATCC BAA-2523, ATCC BAA-2340 (KPC), Klebsiella pneumoniae KPN+19-15, ATCC BAA-1705 (KPC), Pseudomonas aeruginosa PAE19-3, ATCC 27853, Acinetobacter baumannii ABA19-1, and NCTC 13304 (OXA-27).

[2] = system: Acinetobacter baumannii NCTC 13304 (OXA-27); conditions: NCTC 13304
Experimental: as §1, §2, §3, §4

[3] = system: Escherichia coli ATCC BAA-2340 (KPC); conditions: ATCC BAA-2340
Experimental: as §1, §2, §3, §4

[4] = system: Escherichia coli ATCC BAA-2523; conditions: ATCC BAA-2523
Experimental: as §1, §2, §3, §4

[5] = system: Klebsiella pneumoniae ATCC BAA-1705 (KPC); conditions: ATCC BAA-1705
Experimental: as §1, §2, §3, §4

[6] = system: Klebsiella pneumoniae KPN+19-15; conditions: KPN+19-15
Experimental: as §1, §2, §3, §4

[7] = system: Pseudomonas aeruginosa ATCC 27853; conditions: ATCC 27853
Experimental: as §1, §2, §3, §4

[8] = system: Pseudomonas aeruginosa PAE19-3; conditions: PAE19-3
Experimental: as §1, §2, §3, §4

[9] = Nephrotoxicity assay: in vitro cytotoxicity of HK-2 cells by CCK-8 assay; conditions: human, HK-2 cells (human renal), 72 h incubation with drug-containing medium
Experimental: In vitro cytotoxicity detection of HK-2 cells was performed by the CCK-8 assay.
The culture medium for human renal HK-2 cells was a complete RPMI-1640 medium (Invitrogen) supplemented with 10% fetal bovine serum (FBS, Gibco). The cryopreservation solution was composed of 90% FBS and 10% dimethyl sulfoxide (DMSO), and the cells were preserved long-term in liquid nitrogen. Cells were cultured in a sterile incubator with a humidified atmosphere containing 5% CO2 at 37°C. When the cell density reached 70%-80%, cell digestion and subculture were conducted. The cyclic lipopeptide compounds prepared in Examples 1-120 were weighed and dissolved in sterile water to prepare a mother solution with a concentration of 1 mg/mL. Drug-containing culture media were then formulated, with the final concentrations set as 500, 250, 200, 100, 50, 25, and 12.5 µg/mL, respectively. Cells were adjusted to a density of 5 × 10^4 cells/mL and seeded into 96-well plates, with 100 µL of cell suspension added to each well. After stable incubation for 24 h, the original medium was replaced with the prepared drug-containing medium, and the plates were incubated in the incubator for an additional 72 h. The medium was gently aspirated, and 100 µL of blank medium containing 10% CCK-8 was added to each well. After incubation in the incubator for 3 h, the optical density (OD) values at 450 nm were measured using a BIOTEK microplate reader. The experiment was repeated three times. For each replicate, polymyxin B was set as the positive drug, and a drug-free blank group was established as the control. The cell viability (%) was calculated by the formula: Cell viability (%) = [(OD of drug-treated group - OD of zero-setting) / (OD of drug-free group - OD of zero-setting)] × 100%. The half-maximal inhibitory concentration (IC50) values were calculated through logarithmic regression analysis.
The cells used for the nephrotoxicity assay were obtained from the ATCC ( American Type Culture Collection). The Cell Counting Kit-8 (CCK-8) used in the assay was supplied by Beyotime Biotechnology Co., Ltd.

| SMILES | MIC [1] [µg/mL] | MIC [2] [µg/mL] | MIC [3] [µg/mL] | MIC [4] [µg/mL] | MIC [5] [µg/mL] | MIC [6] [µg/mL] | MIC [7] [µg/mL] | MIC [8] [µg/mL] | IC50 at 72 h [9] [µg/mL] |
| --- | --- | --- | --- | --- | --- | --- | --- | --- | --- |
| CCCCCCCCC(=O)N[C@@H](CCN)C(=O)N[C@H](C(=O)N[C@@H](CCN)C(=O)N[C@H]1CCNC(=O)[C@H]([C@@H](C)O)NC(=O)[C@H](CCN)NC(=O)[C@H](CCN)NC(=O)[C@H]([C@@H](C)O)NC(=O)[C@@H](Cc2ccccc2)NC(=O)[C@H](CCN)NC1=O)[C@@H](C)O [Compound 20, Nonanoyl-Dab-Thr-Dab-ring(4-10)[Dab-Dab-D-Phe-Thr-Dab-Dab-Thr]] (Nonanoyl-[Dab]T[Dab][Dab][Dab][dF]T[Dab][Dab]T; lactam 4-C) | 0.5 (≈ 0.42 µM) | 0.25 (≈ 0.21 µM) | 0.06 (≈ 0.0504 µM) | 0.06 (≈ 0.0504 µM) | 0.06 (≈ 0.0504 µM) | 0.06 (≈ 0.0504 µM) | 2 (≈ 1.68 µM) | 2 (≈ 1.68 µM) | 280 ± 10.3 (≈ 235 µM) |
| CC[C@H](C)CCCCC(=O)N[C@@H](CCN)C(=O)N[C@H](C(=O)N[C@H](CCCN)C(=O)N[C@H]1CCNC(=O)[C@H]([C@@H](C)O)NC(=O)[C@H](CCN)NC(=O)[C@H](CCN)NC(=O)[C@H]([C@@H](C)O)NC(=O)[C@@H](Cc2ccccc2)NC(=O)[C@H](CCN)NC1=O)[C@@H](C)O [Compound 21, (S)-6-methyloctanoyl-Dab-Thr-D-Orn-ring(4-10)[Dab-Dab-D-Phe-Thr-Dab-Dab-Thr]] (X1-[Dab]T[dOrn][Dab][Dab][dF]T[Dab][Dab]T; lactam 4-C) | 0.125 (≈ 0.104 µM) | 0.06 (≈ 0.0498 µM) | ≤0.03 | ≤0.03 | 0.06 (≈ 0.0498 µM) | 0.125 (≈ 0.104 µM) | 0.25 (≈ 0.207 µM) | 1 (≈ 0.83 µM) | > 500 |
| CC(C)CCCCC(=O)N[C@@H](CCN)C(=O)N[C@H](C(=O)N[C@H](CCCN)C(=O)N[C@H]1CCNC(=O)[C@H]([C@@H](C)O)NC(=O)[C@H](CCN)NC(=O)[C@H](CCN)NC(=O)[C@H]([C@@H](C)O)NC(=O)[C@@H](Cc2ccccc2)NC(=O)[C@H](CCN)NC1=O)[C@@H](C)O [Compound 22, 6-methylheptanoyl-Dab-Thr-D-Orn-ring(4-10)[Dab-Dab-D-Phe-Thr-Dab-Dab-Thr]] ({Heptanoyl(6-Me)}-[Dab]T[dOrn][Dab][Dab][dF]T[Dab][Dab]T; lactam 4-C) | 0.125 (≈ 0.105 µM) | 0.06 (≈ 0.0504 µM) | ≤0.03 | ≤0.03 | 0.06 (≈ 0.0504 µM) | 0.125 (≈ 0.105 µM) | 0.25 (≈ 0.21 µM) | 1 (≈ 0.839 µM) | > 500 |
| CCCCCCCC(=O)N[C@@H](CCN)C(=O)N[C@H](C(=O)N[C@H](CCCN)C(=O)N[C@H]1CCNC(=O)[C@H]([C@@H](C)O)NC(=O)[C@H](CCN)NC(=O)[C@H](CCN)NC(=O)[C@H]([C@@H](C)O)NC(=O)[C@@H](Cc2ccccc2)NC(=O)[C@H](CCN)NC1=O)[C@@H](C)O [Compound 23, Octanoyl-Dab-Thr-D-Orn-ring(4-10)[Dab-Dab-D-Phe-Thr-Dab-Dab-Thr]] (Octanoyl-[Dab]T[dOrn][Dab][Dab][dF]T[Dab][Dab]T; lactam 4-C) | 0.125 (≈ 0.105 µM) | 0.06 (≈ 0.0504 µM) | ≤0.03 | ≤0.03 | 0.06 (≈ 0.0504 µM) | 0.125 (≈ 0.105 µM) | 0.25 (≈ 0.21 µM) | 1 (≈ 0.839 µM) | > 500 |
